Measured values as given in US20260258051A1, “Camptothecin Compound, Preparation Method Therefor and Use Thereof” (SICHUAN KELUN-BIOTECH BIOPHARMACEUTICAL CO., LTD., priority 2022, published 2026).
Where two headings read alike, the source gives them in different places.

Experiments:
HT29 cells = experiment: Inhibitory effect on HT29 cell proliferation; assay type: cell-based; settings: Homo sapiens, HT-29; HT29, 72 h incubation, Cell Counting-Lite 2.0
Description: (1) Cell plating: First, tumor cells HT29 were cultured with corresponding culture medium, the cells were digested with trypsin and centrifuged, then the cells were resuspended and counted, and the cells were adjusted to an appropriate concentration for plating.
(§1) Co-incubation of the compounds of the present invention and tumor cells: 90 μL of cell suspension was added to 96-well plates respectively. After cell adherence, 10 μL of bioactive molecules (compounds of the present invention) diluted with culture medium were added into the wells of the above plates, and incubated for 72 h.
(§2) In vitro cell viability detection: After the incubation, 50 μL of Cell Counting-Lite™ 2.0 reagent (Vazyme) was added to each well, shaken and mixed well in the dark, and reacted for 10 minutes before testing. Microplate reader (manufacturer: BMG, Model: PHERA Star-FS) was used for reading. The culture wells without cells were used as the background RLU, and the culture wells with cells but no compound were used as the cell control RLU. Cell inhibition rate=1−(sample RLU−background RLU)/(cell control RLU−background RLU)×100%. The half-inhibition concentration (IC50) of compound was calculated by fitting the curve according to the four-parameter model.

HCC1806 cells = experiment: Inhibitory effect on HCC1806 cell proliferation; assay type: cell-based; settings: Homo sapiens; HCC1806, 72 h incubation, Cell Counting-Lite 2.0
Description: (1) Cell plating: First, tumor cells HCC1806 were cultured with corresponding culture medium, the cells were digested with trypsin and centrifuged, then the cells were resuspended and counted, and the cells were adjusted to an appropriate concentration for plating.
as §1, §2

NCI-H358 cells = experiment: Inhibitory effect on NCI-H358 cell proliferation; assay type: cell-based; settings: Homo sapiens; NCI-H358, 72 h incubation, Cell Counting-Lite 2.0
Description: (1) Cell plating: First, tumor cells NCI-H358 were cultured with corresponding culture medium, the cells were digested with trypsin and centrifuged, then the cells were resuspended and counted, and the cells were adjusted to an appropriate concentration for plating.
as §1, §2

NCI-N87 cells = experiment: Inhibitory effect on NCI-N87 cell proliferation; assay type: cell-based; settings: Homo sapiens, read-out: IC50 (nM), inhibitory activity on NCI-N87 cell proliferation
Description: (1) Cell plating: First, tumor cells NCI-N87 were cultured with corresponding culture medium, the cells were digested with trypsin and centrifuged, then the cells were resuspended and counted, and the cells were adjusted to an appropriate concentration for plating.
as §1, §2

MDA-MB-231 cells = experiment: Inhibitory effect on MDA-MB-231 cell proliferation; assay type: cell-based; settings: Homo sapiens; MDA-MB-231, 72 h incubation, Cell Counting-Lite 2.0
Description: (1) Cell plating: First, tumor cells MDA-MB-231 were cultured with corresponding culture medium, the cells were digested with trypsin and centrifuged, then the cells were resuspended and counted, and the cells were adjusted to an appropriate concentration for plating.
as §1, §2

MDA-MB-453 cells = experiment: Inhibitory effect on MDA-MB-453 cell proliferation; assay type: cell-based; settings: Homo sapiens; MDA-MB-453, 72 h incubation, Cell Counting-Lite 2.0
Description: (1) Cell plating: First, tumor cells MDA-MB-453 were cultured with corresponding culture medium, the cells were digested with trypsin and centrifuged, then the cells were resuspended and counted, and the cells were adjusted to an appropriate concentration for plating.
as §1, §2

[1] = Permeability test in MDCK cell model; assay type: in vitro ADME; settings: dog; for efflux ratio at 120 min, 2 μM: pH 7.4, 2.00 μM, Papp(B→A)/Papp(A→B), absence of P-gp inhibitor, read-out: Efflux ratio (ERa)
Description: (§3) The MDCK cell model was used to evaluate the permeability of the compounds, the LC-MS/MS method was used to determine the concentration of the substance to be tested, and the apparent permeability coefficient (Papp) and efflux ratio were calculated [Efflux ratio=Papp(B→A)/Papp(A→B)].
(§4) Complete culture medium: 10% fetal bovine serum and 1% penicillin/streptomycin were added to MEM culture medium.
(§5) Digestive solution: 0.05% trypsin-EDTA.
(§6) HBSS buffer: HBSS containing Ca^2+, Mg^2+.
(§7) Permeating solution: HBSS containing 10 mM Hepes, 4% BSA, pH 7.4.
(§8) Compound stock solution: a certain amount of the compound to be tested was weighed and formulated with DMSO to prepare a 10 mM stock solution.
(§9) MDCK cells (26th generation) in the logarithmic growth phase were digested and dispersed evenly with 0.05% trypsin-EDTA, and then inoculated into the Transwell chamber at 3*10^5 cells/cm^2, with 200 μL on the A side and 1000 μL on the B side. After inoculation, the medium was changed once every day and the culturing was carried out for 3 to 4 days.
(§10) The cell culture medium was discarded by pipetting, then washing was carried out three times with the permeating solution. 200 μL of permeating solution was added to A side and 1000 μL of permeating solution was added to B side. A voltage resistance meter was used to measure the cell transmembrane resistance (TEER). After the TEER value of the cells was measured, the permeating solution on both sides was discarded by pipetting, and the solution was added. After 120 minutes, 150 μL of samples were taken from A side and B side, respectively, and frozen at −80° C. before testing. Then, 10 μg/ml Fluorescent Yellow was added to A side. After incubation for 30 minutes, 100 μL of solution at B side was pipetted and added into a 96-well white plate. The fluorescence value was measured at the wavelengths of Ex=485 nm and Em=530 nm using a microplate reader, and the permeance was calculated (which was less than 1%).
(§11) 80 μL of the compound to be tested was taken, added to 320 μL of acetonitrile solution containing internal standard (30 ng/mL Tolbutamide), vortexed, and centrifuged for 10 min (4000 rpm, 4° C.), and the supernatant was taken for LC-MS/MS analysis.
(§12) Excel 2013 was used to calculate Papp values and Papp ratio of B side→A side to A side→B side, and the recovery rates of each Control Compound and the compound to be tested were calculated.
(§13) Apparent permeability coefficient (Papp) of compound was calculated according to the following formula:
(§14) C0 was the initial concentration (μM) of the drug to be tested at the donor, (dCr/dt)×Vr was the rate (μM/s) at which the drug to be tested appeared at the receiver, Vr was the solution volume (mL) at the receiver, and A was the surface area (cm^2) of polycarbonate membrane.
(§15) Evaluation criteria: Low permeability: Papp≤0.5 (×10^−6 cm/s) • Medium permeability: 0.5<Papp<2.5 (×10^−6 cm/s) • High permeability: Papp≥2.5 (×10^−6 cm/s)
(§16) Efflux ratio (ER) was calculated according to Papp:
(§17) [formula] • wherein, Papp(B→A) was the apparent permeability coefficient of the drug to be tested from the BL (baso-lateral) end to the AP (apical) end, and Papp (A→B) was the apparent permeability coefficient of the drug to be tested from the AP end to the BL end.
(§18) • Probably being an efflux transporter substrate (Probably): ERa≥2 and ERa/ERi>2 • Likely being an efflux transporter substrate (Likely): ERa≥2 • Unlikely or impossibly being an efflux transporter substrate (Poor or non): ERa<2 • wherein, ERi and ERa were the efflux ratios of the compound to be tested in the presence and absence of P-gp inhibitor, respectively.

MDCK cells = experiment: Permeability test in MDCK cell model; assay type: in vitro ADME
Description: as §3, §4, §5, §6, §7, §8, §9, §10, §11, §12, §13, §14, §15, §16, §17, §18

Jeko-1 cells = experiment: Inhibitory effect on Jeko-1 cell proliferation; assay type: cell-based; settings: Homo sapiens; Jeko-1, 72 h incubation, Cell Counting-Lite 2.0
Description: (1) Cell plating: First, tumor cells Jeko-1 were cultured with corresponding culture medium, the cells were resuspended and counted, and finally the cells were adjusted to an appropriate concentration for plating.
as §1, §2

[2] = NCI-N87, 72 h incubation, Cell Counting-Lite 2.0

Row | SMILES | IC50 (HT29 cells) | IC50 (HCC1806 cells) | IC50 (NCI-H358 cells) | IC50 (NCI-N87 cells; NCI-N87, 72 h) | IC50 (MDA-MB-231 cells) | IC50 (MDA-MB-453 cells) | efflux ratio at 120 min, 2 μM [1] | Papp A→B at 120 min, 2 μM ([1]; pH 7.4, concentration 2.00 μM, 120 minutes, A to B, read-out: Papp A to B) | Papp B→A at 120 min, 2 μM ([1]; pH 7.4, concentration 2.00 μM, 120 minutes, B to A, read-out: Papp B to A) | Efflux transporter substrate evaluation from efflux ratio (MDCK cells; 2.00 μM) | Permeability class according to the Papp(A→B) results (MDCK cells; 2.00 μM) | IC50 (Jeko-1 cells) | IC50 (NCI-N87 cells; [2]) | Papp A→B at 120 min, 2 μM ([1]; pH 7.4) | Papp B→A at 120 min, 2 μM ([1]; pH 7.4) | Permeability class according to the Papp(A→B) results (MDCK cells)
1 | CC[C@@]1(O)C(=O)OCc2c1cc1n(c2=O)Cc2c-1nc1cc(F)c(Cl)cc1c2CN [Compound 1-1, (S)-11-(aminomethyl)-9-chloro-4-ethyl-8-fluoro-4-hydroxy-1,12-dihydro-14H-pyrano[3′,4′:6,7]indolizino[1,2-b]quinolin-3,14(4H)-dione] | 1.07 nM | 1.23 nM | 25.7 nM | 8.59 nM | 3.55 nM | 291 nM | 1.41 | 2.59 ×10⁻⁶ cm/s | 3.65 ×10⁻⁶ cm/s | not efflux transporter substrates or were weak efflux transporter substrates | high-permeability |  |  |  |  | 
2 | CC[C@@]1(O)C(=O)OCc2c1cc1n(c2=O)Cc2c-1nc1cc(F)c(Cl)cc1c2CNC(=O)C(O)C1CC1 (stereo partly drawn) [Compound 2-4] | 5.99 nM | 1.08 nM | 53.4 nM | 5.72 nM |  | 95.6 nM |  |  |  |  |  | 0.34 nM |  |  |  | 
3 | CC[C@@]1(O)C(=O)OCc2c1cc1n(c2=O)Cc2c-1nc1cc(F)c(Cl)cc1c2CNC(=O)C(O)C(F)(F)F (stereo partly drawn) [Compound 2-19, N—(((S)-9-chloro-4-ethyl-8-fluoro-4-hydroxy-3,14-dioxo-3,4, 12,14-tetrahydro-1H-pyrano[3′,4′:6,7]indolizino[1,2-b]quinolin-11-yl)methyl)-3,3,3-trifluoro-2-hydroxypropionamide] | 2.93 nM | 0.78 nM | 12.7 nM |  |  |  | 1.48 |  |  | not efflux transporter substrates or were weak efflux transporter substrates |  | 1.09 nM | 5.69 nM | 0.5 ×10⁻⁶ cm/s | 0.73 ×10⁻⁶ cm/s | low-permeability
4 | C=CC(O)C(=O)NCc1c2c(nc3cc(F)c(Cl)cc13)-c1cc3c(c(=O)n1C2)COC(=O)[C@]3(O)CC (stereo partly drawn) [Compound 2-22, N—(((S)-9-chloro-4-ethyl-8-fluoro-4-hydroxy-3,14-dioxo-3,4, 12,14-tetrahydro-1H-pyrano[3′,4′:6,7]indolizino[1,2-b]quinolin-11-yl)methyl)-2-hydroxy-3-enamine] | 10.2 nM | 6.09 nM |  |  |  |  | 2.24 |  |  | could be efflux transporter substrates |  | 1.11 nM | 7.27 nM | 0.71 ×10⁻⁶ cm/s | 1.59 ×10⁻⁶ cm/s | medium-permeability
